Experimental findings from ChEMBL document CHEMBL2146467, “Generation and exploration of new classes of antitubercular agents: The optimization of oxazolines, oxazoles, thiazolines, thiazoles to imidazo[1,2-a]pyridines and isomeric 5,6-fused scaffolds” (Bioorg Med Chem, 2012) are described below.

One may read the MIC90 as an inhibitory concentration at the 90% level, which refers to growth in some studies and to a panel of isolates in others. Lower therefore signals greater potency.

In brackets after ≈: the same amount, converted by molar mass.

Holding throughout (format): functional
Settings in all cases: 336 h

Test [1] deals with Mycobacterium tuberculosis. Briefly: Antimycobacterial activity against isoniazid-,rifampin-,ethambutol-,rifabutin-resistant Mycobacterium tuberculosis after 14 days.
In test [2] the test system is Mycobacterium tuberculosis. Briefly: Antimycobacterial activity against isoniazid-,rifampin-,ethambutol-,streptomycin-,kanamycin-,ofloxacin-resistant Mycobacterium tuberculosis after 14 days.
For test [3], the system named is Mycobacterium tuberculosis. Briefly: Antimycobacterial activity against isoniazid-,rifampin-,ethambutol-,kanamycin-,ofloxacin-resistant Mycobacterium tuberculosis after 14 days.

`O=[N+]([O-])c1cn2c(n1)OC[C@@H](OCc1ccc(OC(F)(F)F)cc1)C2` [PRETOMANID]: the MIC90 in test [1] was found to be 0.45 µM (≈ 0.162 µg/mL); in test [2], 0.86 µM (≈ 0.309 µg/mL); in test [3] it was 0.22 µM (≈ 0.079 µg/mL).

`O=C(OCc1ccccc1)c1coc(-c2ccccc2)n1`: the MIC90 in test [2] is 4.4 µM (≈ 1.23 µg/mL); in test [3], 8.9 µM (≈ 2.49 µg/mL).

Turning to `Cc1ccn2c(C(=O)OCc3ccccc3)c(C)nc2c1`, the values for the MIC90 in test [1], in test [2] and in test [3] were 0.57 µM (≈ 0.16 µg/mL), below 0.04 µM and below 0.04 µM, respectively.

In the case of `O=C(OCc1ccccc1)c1csc(-c2ccccc2)n1`, the MIC90 in test [1] is 33.9 µM (≈ 10 µg/mL); in test [2], 16.9 µM (≈ 4.99 µg/mL); in test [3], 16.9 µM (≈ 4.99 µg/mL).
